Laboratory results: US6762188B1, “Pharmaceutically active benzoquinazoline compounds” (SmithKline Beecham Corporation, priority 1990, dated 2004)
Like-named read-outs stand apart in the source and are kept apart here.

Key:
[1] = biological target: T1, Mammalian Thymidylate Synthase (Homo sapiens, UniProt P04818); test: Thymidylate synthase inhibition, tritium release assay; format: biochemical
T1 construct: made in house; host or cells: Escherichia coli

[2] = Cell culture cytotoxicity, D98; format: cell-based; conditions: human, D98 bone marrow cell line, read-out: Tumor Cell Culture Cytotoxicity IC50 Other (D98)
Method: (§1) Cells are seeded into 96-well plates using a Perkin-Elmer Pro/pette. SW480 and A427 were seeded at 8,000 cells per well, MCF-7 at 10,000, Widr at 7500, and MOLT-4 at 12,500 cells per well, all in 150 µl of medium. Prior to the addition of drugs, cultures were incubated for 24 hrs at 37°. Compounds were added at 2×concentration in 150 l of medium and each concentration was assayed in triplicate. If DMSO or ethanol were used to solubilize compounds, appropriate controls were run if the concentration exceeded 0.01%. Cultures were incubated for 72 hours (96 hours for SW480 and MCF-7) in a 37° humidified incubator at 5% CO2. Inhibition of cell growth was measured using the MTT dye reduction assay.
(§2) Cell dilutions for a standard curve were prepared from a 72 hour log-phase culture. Serial dilutions were seeded in triplicate in 96-well plates and incubated at 37 degrees for one hour. MTT (3-(4,5-dimethylthiazol-2-yl)-2,5-diphenyltetrazolium bromide) was dissolved in PBS at 5 mg/ml and sonicated for 30 seconds. Using the Perkin Elmer Pro/pette, 200 μl of medium was removed and 100 μl of MTT added to the wells of the standard curve and test plates. Suspension cultures were spun for 5 min at 1000 rpm before removing medium from the wells. Plates were incubated for 1 hour at 370 on a platform shaker. Following this incubation 100 ml of medium was removed from the wells and 100 μl of DMSO added to each well. The plates were sonicated for approximately 10 seconds to solubilize the precipitated formazan dye. The absorbance of each well was measured using a Titertek Multiscan MC microtiter plate reader at 570 nm with a reference wavelength of 750 nm. Data was collected using a Mariachi Seed-2 and stored and analyzed using an IBM-AT and Lotus 1-2-3 software.

[3] = Cell culture cytotoxicity, L cells; format: cell-based; conditions: mouse, L fibroblast cell line, read-out: Tumor Cell Culture Cytotoxicity IC50 Other (L)
Method: as §1, §2

[4] = test system: SW480 human colon adenocarcinoma; test: Tumor cell culture cytotoxicity (MTT dye reduction), SW480; conditions: Homo sapiens
Method: (§3) SW480 and WiDr colon adenocarcinomas, MCF-7 breast adenocarcinoma, A427 lung carcinoma and MOLT-4 T-cell leukemia were used for the primary screening of compounds. […] MCF-7, A427 and SW480 were grown in the above medium further supplemented with sodium pyruvate.
as §1, §2

[5] = test system: MCF-7 human breast adenocarcinoma; test: Tumor cell culture cytotoxicity (MTT dye reduction), MCF-7; format: cell-based
Method: as §3, §1, §2

[6] = Table E, fully aromatic 3-methyl derivatives
[7] = SW480, read-out: Tumor Cell Culture Cytotoxicity IC50 SW480, Table E, fully aromatic 3-methyl derivatives
[8] = Table B, fully aromatic 3-amino derivatives
[9] = SW480, read-out: Tumor Cell Culture Cytotoxicity IC50 SW480, Table B, fully aromatic 3-amino derivatives
[10] = MCF7, Table F, fully aromatic p-aminobenzoylglutamates, read-out: Cell Culture Cytotoxicity CCCT MCF-7
[11] = SW480, read-out: Cell Culture Cytotoxicity CCCT SW-480, Table F, fully aromatic p-aminobenzoylglutamates
[12] = SW480, read-out: Tumor Cell Culture Cytotoxicity IC50 SW480, Table D, 5,6-dihydro 3-methyl derivatives
[13] = Table D, 5,6-dihydro 3-methyl derivatives
[14] = Table C, 5,6-dihydro 3-amino derivatives

T1 sequence (P04818 whole entry): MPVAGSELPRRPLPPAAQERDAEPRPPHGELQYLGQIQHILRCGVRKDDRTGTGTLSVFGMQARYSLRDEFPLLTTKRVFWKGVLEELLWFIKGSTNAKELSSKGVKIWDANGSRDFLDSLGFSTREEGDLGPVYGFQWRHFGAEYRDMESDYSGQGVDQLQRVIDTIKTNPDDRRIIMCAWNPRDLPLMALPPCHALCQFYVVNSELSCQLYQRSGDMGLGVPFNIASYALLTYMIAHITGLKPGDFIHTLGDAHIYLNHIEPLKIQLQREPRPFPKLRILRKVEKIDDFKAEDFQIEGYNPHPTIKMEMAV

## CCN(CC)S(=O)(=O)c1ccc2c(c1)-c1c(nc(C)[nH]c1=O)CC2 [N,N-Diethyl-1,2,5,6-tetrahydro-3-methyl-1-oxobenzo(f)quinazoline-9-sulfonamide]
[1]
  IC50: 1 to 300 µM
other
  melting point: 249 to 251 °C

## Cc1nc2ccc3ccc(CNc4ccc5c(c4)CCC5=O)cc3c2c(=O)[nH]1 [3-Methyl-9-(((1-oxo-5-indanyl)amino)methyl)benzo)[f]quinazolin-1(2H)-one]
[2]; [6]
  IC50 at 72 h: 0.25 µM
[3]; [6]
  IC50 at 72 h: 0.058 µM
[4]; [7]
  IC50: 0.015 µM

## Nc1nc2ccc3ccc(CNc4ccc(F)cc4)cc3c2c(=O)[nH]1 [Example 38, 3-Amino-9-((4-fluoroanilino)methyl)benzo[f]quinazolin-1(2H)-one]
other
  melting point: > 230 °C

## Cc1nc2c(c(=O)[nH]1)-c1cc(S(N)(=O)=O)ccc1CC2 [1,2,5,6-Tetrahydro-3-methyl-1-oxobenzo(f)quinazoline-9-sulfonamide]
[1]
  IC50: 1 to 300 µM
other
  melting point: > 240 °C

## Nc1ccc2c(ccc3nc(N)nc(O)c32)c1 [3,8-Diaminobenzo(f)quinazolin-1(2H)-one]
[1]
  IC50: 1 to 300 µM
[2]; [8]
  IC50 at 72 h: 53 µM
[3]; [8]
  IC50 at 72 h: 40 µM
[4]; [9]
  IC50: 100 µM

## CCCCCCCCCCCCOC(=O)CCC(=O)c1ccc(NCc2ccc3ccc4nc(C)[nH]c(=O)c4c3c2)cc1 [Dodecyl 4-(4-(((1,2-dihydro-3-methyl-1-oxobenzo[f]quinazolin-9-yl)methyl)amino)phenyl)-4-oxobutyrate]
other
  melting point: 213 to 214 °C
[4]; [7]
  IC50: 0.4 µM

## Nc1nc2ccc3ccc(CNc4ccc(C(=O)N[C@@H](CCC(=O)O)C(=O)O)cc4)cc3c2c(=O)[nH]1 [N-(4-(((3-Amino-1,2-dihydro-1-oxobenzo(f)quinazolin-9-yl)methyl)amino)benzoyl)-L-glutamic acid]
[5]; [10]
  IC50: 0.025 µM
[4]; [11]
  IC50: 0.6 µM

## Cc1nc2ccc3c(S(=O)(=O)Nc4ccc(C(=O)N[C@@H](CCC(=O)O)C(=O)O)cc4)cccc3c2c(=O)[nH]1 [N-(4-((1,2,-Dihydro-3-methyl-1-oxobenzo(f)quinazolin-7-yl)sulfonamido)benzoyl)-L-glutamic acid]
[5]; [10]
  IC50: 50 µM

## Nc1nc2ccc3c(Br)cccc3c2c(=O)[nH]1 [3-Amino-7-bromobenzo(f)quinazolin-1(2H)-one]
[1]
  IC50: 1 to 300 µM
[2]; [8]
  IC50 at 72 h: 56 µM
[3]; [8]
  IC50 at 72 h: 28 µM
[4]; [9]
  IC50: 10 µM

## Cc1nc2c(c(=O)[nH]1)-c1cc(S(=O)(=O)Nc3ccc([N+](=O)[O-])cc3)ccc1CC2 [1,2,5,6-Tetrahydro-3-methyl-4′-nitro-1-oxobenzo(f)quinazoline-9-sulfonanilide]
other
  melting point: > 240 °C
[4]; [12]
  IC50: 30 µM

## CC(=O)c1ccc(NCc2ccc3ccc4nc(C)[nH]c(=O)c4c3c2)cc1 [Example 35, 9-((4-Acetylanilino)methyl)-3-methylbenzo[f]quinazolin-1(2H)-one]
other
  melting point: > 235 °C

## Nc1nc2ccc3cc(S(=O)(=O)Nc4ccc(C(=O)N[C@@H](CCC(=O)O)C(=O)O)cc4)c(Br)cc3c2c(=O)[nH]1 [N-(4-((3-Amino-9-bromo-1,2-dihydro-1-oxobenzo(f)quinazolin-8-yl)sulfonamido)benzoyl)-L-glutamic acid]
[5]; [10]
  IC50: > 50 µM
other
  melting point: 238 to 242 °C
[4]; [11]
  IC50: > 50 µM

## Nc1nc2ccc3c([N+](=O)[O-])c(F)ccc3c2c(=O)[nH]1 [3-Amino-8-fluoro-7-nitrobenzo(f)quinazolin-1(2H)-one]
[1]
  IC50: 1 to 300 µM
[2]; [8]
  IC50 at 72 h: 20 µM
[3]; [8]
  IC50 at 72 h: 14 µM
[4]; [9]
  IC50: 30 µM

## Nc1nc2c(c(=O)[nH]1)-c1cc(S(=O)(=O)Nc3ccc(C(=O)N[C@@H](CCC(=O)O)C(=O)O)cc3)ccc1CC2 [N-(4-((3-Amino-1,2,5,6-tetrahydro-1-oxobenzo(f)quinazolin-9-yl)-sulfonamido)benzoyl)-L-glutamic acid]
[5]; MCF7, Table G, dihydrobenzoquinazoline p-aminobenzoylglutamates, read-out: Cell Culture Cytotoxicity CCCT MCF-7
  IC50: 0.65 µM
[4]; SW480, read-out: Cell Culture Cytotoxicity CCCT SW-480, Table G, dihydrobenzoquinazoline p-aminobenzoylglutamates
  IC50: 7.9 µM

## COCc1cc2nc(N)nc(O)c2c2ccccc12 [3-Amino-6-(methoxymethyl)benzo(f)quinazolin-1(2H)-one]
[1]
  IC50: 1 to 300 µM
[2]; [8]
  IC50 at 72 h: 74 µM
[3]; [8]
  IC50 at 72 h: 56 µM
[4]; [9]
  IC50: 60 µM

## CCN(CC)S(=O)(=O)c1ccc2ccc3nc(N)[nH]c(=O)c3c2c1 [Example 9-SO2NEt2, 3-Amino-N,N-diethyl-1,2-dihydro-1-oxobenzo[f]quinazoline-9-sulfonamide]
other
  melting point: > 250 °C
[4]; [9]
  IC50: 15 µM
[4]; SW480, read-out: Tumor Cell Culture Cytotoxicity IC50 SW480, Table C, 5,6-dihydro 3-amino derivatives
  IC50: 30 µM

## Cc1nc2ccc3ccc(CNc4ccc(C(=O)CCC(=O)O)cc4)cc3c2c(=O)[nH]1 [4-(4-(((1,2-Dihydro-3-methyl-1-oxobenzo[f]quinazolin-9-yl)methyl)amino)phenyl)-4-oxobutyric acid]
[2]; [6]
  IC50 at 72 h: 13.5 µM
[3]; [6]
  IC50 at 72 h: 8.8 µM
[4]; [7]
  IC50: 0.7 µM

## Cc1cccc2c1ccc1nc(N)[nH]c(=O)c12 [3-Amino-7-methylbenzo(f)quinazolin-1(2H)-one]
[1]
  IC50: 1 to 300 µM
[2]; [8]
  IC50 at 72 h: 53 µM
[3]; [8]
  IC50 at 72 h: 32 µM
[4]; [9]
  IC50: 35 µM

## CC(=O)c1ccc(NS(=O)(=O)c2ccc3c(c2)-c2c(nc(C)[nH]c2=O)CC3)cc1 [4′-Acetyl-1,2,5,6-tetrahydro-3-methyl-1-oxobenzo(f)quinazoline-9-sulfonanilide]
other
  melting point: > 240 °C
[4]; [12]
  IC50: 8 µM

## Cc1nc2ccc3ccc(CN(C)c4ccc(C(=O)N[C@@H](CCC(=O)O)C(=O)O)cc4)cc3c2c(=O)[nH]1 [N-(4-((1,2-Dihydro-3-methyl-1-oxobenzo(f)quinazolin-9-yl)methyl)methylamino)benzoyl)-L-glutamic acid]
[5]; [10]
  IC50: 0.018 µM
[4]; [11]
  IC50: 1.5 µM

## Cc1nc2ccc3ccc(CNc4ccc(C(=O)N[C@@H](CCC(=O)O)C(=O)O)c(F)c4)cc3c2c(=O)[nH]1 [N-(4-(((1,2-Dihydro-3-methyl-1-oxobenzo(f)quinazolin-9-yl)methyl)amino)-2-fluorobenzoyl)-L-glutamic acid]
[5]; [10]
  IC50: 0.0007 µM
[4]; [11]
  IC50: 0.02 µM

## Cc1nc2c(c(=O)[nH]1)-c1cc(S(=O)(=O)Nc3ccc(C(N)=O)cc3)ccc1CC2 [4-((1,2,5,6-Tetrahydro-3-methyl-1-oxobenzo(f)quinazolin-9-yl)sulfonamido)benzamide]
other
  melting point: 190 °C
[4]; [12]
  IC50: 80 µM

## Cc1nc2ccc3ccc(CNc4ccc(C(=O)N[C@@H](CCC(=O)O)C(=O)O)cc4)cc3c2c(=O)[nH]1 [N-(4-(((1,2-Dihydro-3-methyl-1-oxobenzo(f)quinazolin-9-yl)methyl)amino)benzoyl)-L-glutamic acid]
[5]; [10]
  IC50: 0.0075 µM
[4]; [11]
  IC50: 0.35 µM

## Cc1nc2ccc3ccc(COc4ccc(C(=O)N[C@@H](CCC(=O)O)C(=O)O)cc4)cc3c2c(=O)[nH]1 [N-(4-((1,2-Dihydro-3-methyl-1-oxobenzo(f)quinazolin-9-yl)methoxy)benzoyl)-L-glutamic acid]
[5]; [10]
  IC50: 7 µM
[4]; [11]
  IC50: 70 µM

## Cc1nc2c(c(=O)[nH]1)-c1ccc([N+](=O)[O-])cc1CC2 [Example 8-NO2, 5,6-dihydro-3-methyl-8-nitrobenzo[f]quinazolin-1(2H)-one]
[2]; [13]
  IC50 at 72 h: 52 µM
[3]; [13]
  IC50 at 72 h: 52 µM
[4]; [12]
  IC50: 100 µM

## CC(=O)c1ccc(NCc2ccc3ccc4nc(N)[nH]c(=O)c4c3c2)cc1 [3-Amino-9-((4-acetylanilino)methyl)benzo(f)quinazolin-1(2H)-one]
[1]
  IC50: < 1 µM
[5]; MCF7, Table B, fully aromatic 3-amino derivatives, read-out: Tumor Cell Culture Cytotoxicity IC50 Other (MCF-7)
  IC50: 0.03 µM
[4]; [9]
  IC50: 0.045 µM

## CCSc1ccc2c(c1)-c1c(nc(N)[nH]c1=O)CC2 [3-Amino-9-(ethylthio)-5,6-dihydrobenzo(f)quinazolin-1(2H)-one]
[2]; [14]
  IC50 at 72 h: 54 µM
[3]; [14]
  IC50 at 72 h: 33 µM

## Cc1nc2ccc3ccc(CNc4ccc5c(c4)CN([C@@H](CCC(=O)O)C(=O)O)C5=O)cc3c2c(=O)[nH]1 [(S)-2-(5-(((1,2-Dihydro-3-methyl-1-oxobenzo(f)quinazolin-9-yl)methyl)amino)-1-oxo-2-isoindolinyl)glutaric acid]
[5]; [10]
  IC50: 0.0002 µM
[4]; [11]
  IC50: 0.0008 µM

## Nc1nc2ccc3c(Cl)cccc3c2c(=O)[nH]1 [3-Amino-7-chlorobenzo(f)quinazolin-1(2H)-one]
[1]
  IC50: 1 to 300 µM
[2]; [8]
  IC50 at 72 h: 60 µM
[3]; [8]
  IC50 at 72 h: 46 µM
[4]; [9]
  IC50: 25 µM
